Data from the supplement of paper PMC11997997.

Experiments:
[1] = tested on: murine bone marrow-derived macrophages; assay: area under cytotoxicity dose-response curve (AUC (% cytotoxicity x dose, relative)); higher = more cytotoxic; conditions: duration: 6 days; dose range: 0.13-80 uM, 8 points
In short: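 Using opaque 384-well plates, primary murine bone marrow-derived macrophages were treated for 6 days at 37 °C in 5% CO2 with an 8-point, 2.5-fold dilution series spanning final concentrations of 80–0.13 μM. After CellTiter-Glo (Promega) luminescence readout of viability, percent cytotoxicity was normalised to vehicle and positive control wells. The reported value is the area under the dose–response curve for cytotoxicity, derived in GraphPad Prism version 10.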

[2] = tested on: Mycobacterium tuberculosis CDC1551 (intracellular, in murine BMDM); assay: area under intracellular growth-inhibition dose-response curve (AUC (% inhibition x dose, relative)); higher = more potent; conditions: duration: 6 days; dose range: 0.13-80 uM, 8 points
In short: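 Primary murine bone marrow-derived macrophages in 384-well opaque plates were infected 24 h after seeding with luciferase-expressing M. tuberculosis CDC1551 at multiplicity of infection 1 for 1 h. They were then treated with an 8-dose, 2.5-fold series (final 80–0.13 μM) for 6 days. Growth was read by Bright-Glo luciferin assay and normalised to a reference drug control and the lowest-concentration wells. The value is the area under the growth-inhibition dose–response curve, calculated in GraphPad Prism.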

Structure (SMILES) | area under cytotoxicity dose-response curve [1] | area under intracellular growth-inhibition dose-response curve [2]
CCc1ccc(NC(=S)Nc2ccc3c[nH]nc3c2)cc1 | 33.8 | 237
COc1ccc(/C=C/C(=O)c2ccc([N+](=O)[O-])o2)cc1OC | 118 | 3.95
O=C(Nc1ccc(N2CCN(Cc3ccccc3F)CC2)cc1)c1ccc([N+](=O)[O-])o1 | 5.12 | 186
Cn1nc([N+](=O)[O-])nc1Oc1ccc(C(C)(C)C)cc1 | 40.1 | 206
Cc1cc(=O)c2cc(Br)ccc2n1CC(=O)NCc1ccccc1 | 41.6 | 233
O=C1CN(C(=O)COC(=O)c2ccc(Br)o2)c2ccccc2N1 | 23.5 | 58.2
CCC(=O)NC(=S)Nc1ccc(NC(=O)c2ccc(OC)cc2)cc1 | < 0 | 266
CC(C)(C)C1C/C(=C/c2ccccn2)C(=O)/C(=C/c2ccccn2)C1 (stereo not given) | 155 | 65.4
COc1ccc(C=CC(C)=NNC(=O)c2ccncc2)cc1 | < 0 | 254
Cc1nnc(NS(=O)(=O)c2ccc(N)cc2)s1 | 29.3 | 121
O=C(Nc1ccn(Cc2ccccc2)n1)c1ccc2c(c1)OCO2 | 62.2 | 121
COc1ccc(OC)c2sc(N3CCN(C(=O)c4ccc([N+](=O)[O-])s4)CC3)nc12 | 14.2 | 10.8
Cc1nc2ccccn2c1C(=O)NCc1ccc2c(c1)OCO2 | 38.9 | 203
CC[C@@H](C)[C@@H]1CN([C@@H](CN2CCC[C@H]2CN2C(N)=NC[C@H]2C(C)C)C(C)C)C(=N)N1CCCC1CCCC1 | 32.4 | 191
Cc1nc(SCc2cccc(F)c2)c2oc3ccccc3c2n1 | < 0 | 186
O=C(N/N=C/c1c(F)c(F)c(F)c(F)c1F)c1ccc(Cn2cc(Br)cn2)o1 | < 0 | 154
Cc1ccc(NC(=O)c2cc(S(=O)(=O)N3CCCCC3)ccc2N2CCOCC2)cc1S(=O)(=O)N(C)C | 58.9 | < 0
C/C(CC(=O)Nc1ccc(Cl)cc1Cl)=N\NC(=O)c1ccncc1 | 46.2 | 270
CC(NC(=O)c1cccc(Cl)c1)C1CC2CCC1C2 (stereo not given) | 48.5 | 225
C=C1C(=O)O[C@@H]2C[C@@H](C)[C@@H]3C=CC(=O)[C@@]3(C)[C@@H](OC(=O)CC(=O)O[C@H]3[C@@H]4C(=C)C(=O)O[C@@H]4C[C@@H](C)[C@@H]4C=CC(=O)[C@]43C)[C@H]12 | 35 | 87.6

Structure (SMILES) | area under cytotoxicity dose-response curve [1] | area under intracellular growth-inhibition dose-response curve [2]
Cc1ccc(Cc2c(C)c(C#N)c3nc4ccccc4n3c2O)cc1 | 75.7 | 240
CC(=O)c1cc(NC(=O)c2ccccc2)c(=O)oc1/C=C/N(C)C | 30.2 | 160
O=C(/C=C/c1ccc2c(c1)OCO2)N1CCCCC1 | 15.2 | 155
COc1cc(/C=N/NC(=O)C23CC4CC(CC(C4)C2)C3)cc(Br)c1O | 23.8 | 154
C/C(=N/NC(=O)c1ccncc1)c1ccccc1 | < 0 | 243
CCC(C)N1CCC2(CC1)N=c1c3c(O)c4c(O)c(C)c5c(c4c1=N2)C(=O)[C@@](C)(OC=C[C@H](OC)[C@@H](C)[C@@H](OC(C)=O)[C@H](C)[C@H](O)[C@H](C)[C@@H](O)[C@@H](C)C=CC=C(C)C(=O)N3)O5 (stereo not given in full) | 86.3 | 253
NC(=S)N/N=C/C=C/c1ccccc1 | 82.2 | 243
N#C/C(=N\Nc1ccc(Cl)cc1)C(N)=S | 16.4 | 102
O=C(OCC(=O)c1ccc(Cl)s1)c1cncc(Br)c1 | 95.6 | 0.884
COc1cc(/C=N/NC(N)=S)ccc1OC(=O)c1ccc(C)cc1 | 23.5 | 264
COC(=O)C1C(O)C(C)C(O)C(C)/C=C\C=C(/C)C(=O)Nc2c(C)c(OC(C)=O)c3c(c2O)C(=O)C(C)=C2OCOC(=C23)/C(C)=C/C(C)(O)C(O)C(C)C1O (stereo not given) | 11.5 | 216
Cc1ccc(S(=O)(=O)Nc2c(C)n(C)n(-c3ccccc3)c2=O)cc1C(=O)OC(C)C(=O)c1ccccc1 (stereo not given) | 6.34 | 17
CC1CCN(Cc2nc(-c3ccccc3)no2)CC1.Cl | 111 | 175
Nc1nc(F)nc2c1ncn2[C@@H]1O[C@H](CO)[C@@H](O)[C@H]1O | 236 | < 0
Cc1ccccc1OCCC(=O)NNC(=O)c1ccccc1F | 17.3 | 106
CCOc1c2c(nc3ccc(Cl)cc13)CCC2 | 57.1 | 157
O=C(N/N=C/c1ccc([N+](=O)[O-])o1)c1cc2ccccc2o1 | 43.2 | 106
CC1CC(C)CN(C(=O)c2ccc(CNc3c(N4CCCC4)c(=O)c3=O)cc2)C1 (stereo not given) | 166 | 179
COc1c(/C=N/NC(=O)c2ccncc2)c(CCN(C)C(C)=O)cc2c1OCO2 | 96.3 | 252
O=C(/C=C/c1cccs1)N1CCN(Cc2ccc3c(c2)OCO3)CC1 | < 0 | 271

Structure (SMILES) | area under cytotoxicity dose-response curve [1] | area under intracellular growth-inhibition dose-response curve [2]
CN(CC(=O)Nc1ccc(OC(F)(F)F)cc1)C(=O)c1ccc(N2CCCC2=O)cc1 | 36.3 | 27.6
COc1ccc(CN(C)C(=O)c2cccc(S(=O)(=O)N3CCCc4ccccc43)c2)c(OC)c1OC | 16.4 | 144
COc1c(N2CCN(C(=S)NC3CC4CCC3C4)C(C)C2)c(F)cc2c(=O)c(C(=O)O)cn(C3CC3)c12 (stereo not given) | 8.11 | 239
O=C(c1cccc(C(F)(F)F)c1)N1CCCC1 | < 0 | 232
CCCCN1CNC(=S)N(c2ccc(C(=O)OCC)cc2)C1 | < 0 | 270
CCCCOc1ccc(C(=O)C2=C(O)C(=O)N(CCCOC)C2c2ccncc2)cc1 (stereo not given) | 19.4 | 106
CCc1ccc(C(=O)NC2CCCCC2)s1 | 42.5 | 239
COc1ccc2nc(C)cc(N/N=C/c3cccc(OC)c3O)c2c1 | 69 | 124
COc1cc(/C=N/NC(N)=S)ccc1OCc1ccc(C)cc1 | 30.4 | 255
COc1cc(/C=C/C(=O)c2ccc([N+](=O)[O-])o2)ccc1O | 107 | 76
O=C(Nc1ccc(OC(F)(F)F)cc1)c1ccc2c(c1)no[n+]2[O-] | < 0 | 230
CCCCN1CC(COc2ccccc2)OC1=O (stereo not given) | < 0 | 195
CC(/C=C/c1ccccc1)=N\NC(N)=S | 31.1 | 266
Cc1cc(Cl)ccc1OCCCC(=O)NNC(=O)c1ccncc1 | < 0 | 271
COc1ccc(NC(=O)CON=CC(=O)Nc2ccc(C)cc2)c(OC)c1 | 7 | 38.9
CCOC(=O)N=Nc1c2nc3nonc3[nH]c-2c2ccccc12 | 186 | 136
O=C(NCc1ccccc1)c1ccc(Br)o1 | 19.6 | 267
Cc1cc(OCC(=O)N2CCCC2)ccc1Cl | 55.1 | 220
CN(C)c1ccc(/C=N/CC2(O)CCOC(C)(C)C2)cc1 (stereo not given) | 103 | 1.75
O=C(NC(=S)Nc1ccc(NC(=O)c2cccs2)cc1)c1ccco1 | < 0 | 268
